Measurements as given in PMC7156458, “Synthetic biology based construction of biological activity-related library of fungal decalin-containing diterpenoid pyrones” (Nature Communications, 2020).
Where “and” joins values, the source holds several entries; their conditions need not be identical. Identical values can stand only once. Entries after “also recorded” stand apart in the source; their conditions may differ.

Experiments:
A549 = assay: cells; set-up: species or system JFCR39 human cancer cell lines; JFCR39 panel growth inhibition, sulforhodamine B total protein after 48 h; settings: for GI50: Homo sapiens, A549, 48 h
Method in brief: (§1)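 SRB assay, 48 h drug exposure, JFCR39 panel; RPMI-1640 + 5% FBS, 37°C/5% CO2. Read-out: total cellular protein. GI50 calculated from duplicates.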

HCT-116 = assay: cells; set-up: species or system JFCR39 human cancer cell lines; JFCR39 panel growth inhibition, sulforhodamine B total protein after 48 h; settings: for GI50: Homo sapiens, HCT-116, 48 h
Method in brief: as §1

KM-12 = assay: cells; set-up: species or system JFCR39 human cancer cell lines; JFCR39 panel growth inhibition, sulforhodamine B total protein after 48 h; settings: for GI50: Homo sapiens, KM12, 48 h
Method in brief: as §1

MKN-A = assay: cells; set-up: species or system JFCR39 human cancer cell lines; JFCR39 panel growth inhibition, sulforhodamine B total protein after 48 h; settings: 48 h; for Log GI50: inhibitor, Log GI50, 48 h
Method in brief: as §1

NCI-H226 = assay: cells; set-up: species or system JFCR39 human cancer cell lines; JFCR39 panel growth inhibition, sulforhodamine B total protein after 48 h; settings: for GI50: Homo sapiens, NCI-H226, 48 h; for Log GI50: 48 h, inhibitor, Log GI50, 48 h
Method in brief: as §1

PC-3 = assay: cells; set-up: species or system JFCR39 human cancer cell lines; JFCR39 panel growth inhibition, sulforhodamine B total protein after 48 h; settings: for GI50: Homo sapiens, PC-3, 48 h
Method in brief: as §1

RXF-631L = assay: cells; set-up: species or system JFCR39 human cancer cell lines; JFCR39 panel growth inhibition, sulforhodamine B total protein after 48 h; settings: 48 h; for GI50: RXF-631L
Method in brief: as §1

SF-295 = assay: cells; set-up: species or system JFCR39 human cancer cell lines; JFCR39 panel growth inhibition, sulforhodamine B total protein after 48 h; settings: Homo sapiens, SF-295, 48 h
Method in brief: as §1

HBC-4 = assay: cells; set-up: species or system JFCR39 human cancer cell lines; JFCR39 panel growth inhibition, sulforhodamine B total protein after 48 h; settings: for GI50: HBC4, 48 h
Method in brief: as §1

MKN45 = assay: cells; set-up: species or system JFCR39 human cancer cell lines; JFCR39 panel growth inhibition, sulforhodamine B total protein after 48 h; settings: for GI50: Homo sapiens, MKN-45, 48 h
Method in brief: as §1

MKN74 = assay: cells; set-up: species or system JFCR39 human cancer cell lines; JFCR39 panel growth inhibition, sulforhodamine B total protein after 48 h; settings: for GI50: Homo sapiens, MKN-74, 48 h; for Log GI50: 48 h, inhibitor, Log GI50, 48 h
Method in brief: as §1

MCF-7 cells = assay: mammosphere formation assay; format: cell-based, human; settings: MCF-7, 5 μM; for MFE (%) ave / MFE (control = 1) ave / MFE (%): 7 days; for MFE (%) ave: mean of 3, control 0.87; for MFE (control = 1) ave: relative to control = 1; for MFE (%): single replicates
Description: We also evaluated antiproliferative activity against cancer stem cells (CSCs), which are a small sub-population in tumour bulk identified in most cancer cells and clinical samples[52]. CSCs have been a major problem in cancer therapy because they are responsible for recurrence, metastasis and drug resistance to chemotherapeutic agents that affect proliferative cells[53]–[56]. Anti-CSC activity was evaluated by the inhibition of sphere-forming ability, a well-studied method to enrich the CSC-like population, and selective cytotoxicity against one of the most reliable CSC markers, aldehyde dehydrogenase (ALDH)-positive cells. […] Low-toxicity 16 was also added as a negative control. […] We next evaluated the three DDPs that inhibited mammosphere formations against ALDH-positive cells, a functional marker for breast CSCs. MCF-7 cells were treated with 1 μM of 11, 12 or 22, and the ALDH-positive cell population was analysed by using a fluorescence activated cell sorter (Supplementary Fig. 46b). […] Thus, for the first time, we successfully found DDPs with potent antiproliferative effects on the CSC-like population in MCF-7 cells, which may lead to new anti-CSC drugs.
Fig. 5 DDPs show anti-CSC activity in breast cancer cell line MCF-7. a Effect of DDPs on mammosphere formation. After the cells were cultured in the presence of 5 μM DDPs for 7 days, the number of mammospheres was microscopically counted and the percentage of mammosphere-forming cells was determined as mammosphere-forming efficiency (MFE; %). Data represent mean ± s.d. from three independent replicate experiments. P-values were calculated by a two-sided unpaired Student’s t-test, compared with control. b Micrographs show representative images of mammosphere formation from three independent replicate experiments using compound 11, 12, 16, 22. The scale bar, […]. c Effect of DDPs (1 μM, 3 days) on ALDH-positive cells in MCF-7 cells. Data represent mean ± s.d. from three independent replicate experiments. P-values were calculated by a two-sided unpaired Student’s t-test, compared with control. d Dose-dependent effect of compound 12 on ALDH-positive cells in MCF-7 cells. Data represent mean ± s.d. from three independent replicate experiments. P-values were calculated by a two-sided unpaired Student’s t-test. Source data underlying Fig. 5a, c, d are provided in a Source Data file.

[1] = tested on: hepatitis B virus (HBV), measles virus (MV), Epstein-Barr virus (EBV), herpes simplex virus (HSV); assay: preliminary anti-viral screening (other viruses); format: cell-based
Source text: We examined the inhibitory activities of DDPs against various species of bacteria (both gram-negative and gram-positive bacteria), fungi and viruses. […] In contrast, preliminary screening of the DDPs for anti-viral agents with hepatitis B virus (HBV), measles virus (MV), Epstein-Barr virus (EBV), herpes simplex virus (HSV) and human immunodeficiency virus-1 (HIV-1) indicated their selective inhibition of HIV.

[2] = 48 h, inhibitor, Log GI50, 48 h

| SMILES | GI50 (A549) | GI50 (HCT-116) | GI50 (KM-12) | GI50 (MKN-A) | GI50 (NCI-H226) | GI50 (PC-3) | GI50 (RXF-631L) | GI50 (SF-295) | GI50 (HBC-4) | GI50 (MKN45) | GI50 (MKN74) | MFE (%) ave (MCF-7 cells) | MFE (control = 1) ave (MCF-7 cells) | MFE (%) (MCF-7 cells) | effect on other viruses [1] | further results |
| --- | --- | --- | --- | --- | --- | --- | --- | --- | --- | --- | --- | --- | --- | --- | --- | --- |
| C=C1CCC2C(C)(CC(=O)C=C(C)C)C(O)CCC2(C)C1Cc1c(O)c(C)c(C)oc1=O (stereo not shown) [Compound 7] | 66.7 µM | 37.3 µM | 56 µM | 20.5 µM | 33.4 µM | 83 µM | 65.9 µM | 25.4 µM | – | – | – | – | – | – | – | – |
| C=C1CC[C@@H]2[C@](C)(CC[C@H]3O[C@H](C=C(C)C)C[C@@]23C)[C@@H]1Cc1c(OC)oc(CO)c(C(=O)OC)c1=O [Compound 21] | 18.5 µM | 15 µM | 18.2 µM | 14.3 µM | 18.2 µM | 14.7 µM | 17.3 µM | 12.1 µM | 16.8 µM | 16.2 µM | 19.8 µM | – | – | – | – | – |
| C=C1CC[C@H]2[C@]3(C)C[C@@H](C=C(C)C)O[C@H]3CC[C@]2(C)[C@@H]1Cc1c(O)c(C)c(C)oc1=O [Compound 5, subglutinol A] | – | – | – | – | – | – | – | – | – | – | – | 1.13% | 1.30 | 1.04% and 1.24% and 1.10% | without affecting other viruses | – |
| C=C1CCC2C(C)(CCC=C(C)C)C(O)CCC2(C)C1Cc1c(OC)oc(CO)c(C)c1=O (stereo not shown) [Compound 12] | 6.24 µM | 2.63 µM | 12.9 µM | – | – | 4.92 µM | 16.1 µM | – | 13.8 µM | 13.4 µM | – | 0.21% | 0.24 | 0.18% and 0.21% and 0.23% | without affecting other viruses | effect on sphere formation (MCF-7 cells): clearly inhibited sphere formation; also recorded: strongest effect on sphere formation; Log GI50 (MKN-A): -6.771 M; Log GI50 (MKN74): -5.381 M; Log GI50 (NCI-H226): -4.935 M |
| C=C1CCC2C(C)(CCC=C(C)C)C(O)CCC2(C)C1Cc1c(OC)oc(C)c(C(=O)OC)c1=O (stereo not shown) [Compound 14] | 11 µM | 2.83 µM | 14.1 µM | – | 11.7 µM | 10.1 µM | 14.5 µM | 11.5 µM | 16.1 µM | 13 µM | 10.8 µM | – | – | – | without affecting other viruses | – |
| C=C1CCC2C3(C)CC(C=C(C)C)OC3CCC2(C)C1Cc1c(OC)oc(C)c(C)c1=O (stereo not shown) [Compound 23] | – | – | – | – | – | – | – | – | – | – | – | 0.66% | 0.76 | 0.60% and 0.72% and 0.66% | without affecting other viruses | – |
| C=C1CCC2C(C)(CC(=O)C=C(C)C)C(O)CCC2(C)C1Cc1c(OC)oc(CO)c(C)c1=O (stereo not shown) [Compound 19] | 34.4 µM | 22.8 µM | 56.2 µM | 9.57 µM | 19.1 µM | 24.1 µM | – | 17.2 µM | – | 77.1 µM | 31 µM | – | – | – | – | – |
| C=C1CC[C@@H]2[C@](C)(CC[C@H]3O[C@H](C=C(C)C)C[C@@]23C)[C@@H]1Cc1c(O)c(C)c(C)oc1=O [Compound 10, higginsianin A] | – | – | – | – | – | – | – | – | – | – | – | – | – | – | without affecting other viruses | – |
| C=C1CCC2C(C)(CCC=C(C)C)C(O)CCC2(C)C1Cc1c(OC)oc(C)c(C)c1=O (stereo not shown) [Compound 11] | – | 0.736 µM | – | 0.308 µM | 18.2 µM | – | 19.3 µM | – | 35.8 µM | 18.6 µM | 4.76 µM | 0.46% | 0.53 | 0.47% and 0.44% | without affecting other viruses | effect on sphere formation (MCF-7 cells): clearly inhibited sphere formation |
| C=C1CCC2C(C)(CCC=C(C)C)C(O)CCC2(C)C1Cc1c(OC)oc(CO)c(C(=O)OC)c1=O (stereo not shown) [Compound 13] | 19.8 µM | 18.4 µM | 19.1 µM | – | 16.9 µM | 14.8 µM | 16.8 µM | 11.9 µM | 21.8 µM | 16.7 µM | 14.8 µM | – | – | – | – | – |
| C=C1CCC2C(C)(CCC=C(C)C)C(O)CCC2(C)C1Cc1c(OC)oc(CO)c(C)c1=O (stereo not shown) [Compound 16] | – | – | – | – | – | – | – | 2.8 µM | – | – | – | 0.87% | 1.00 | 0.62% and 1.01% and 0.96% | – | effect on sphere formation (MCF-7 cells): did not affect sphere formation; Log GI50 (A549; [2]): -5.056 M; Log GI50 (HBC-4; [2]): -4.804 M; Log GI50 (HCT-116; [2]): -5.292 M; Log GI50 (KM-12; [2]): -4.862 M; Log GI50 (MKN-A): -5.445 M; Log GI50 (MKN45; [2]): -4.853 M; Log GI50 (MKN74): -4.995 M; Log GI50 (NCI-H226): -5.269 M; Log GI50 (PC-3; [2]): -5.211 M; Log GI50 (RXF-631L; inhibitor, Log GI50, 48 h): -4.839 M |
| C=C1CC[C@H]2[C@]3(C)C[C@H](C=C(C)C)O[C@H]3CC[C@]2(C)[C@@H]1Cc1c(OC)oc(CO)c(C)c1=O [Compound 18] | – | – | – | – | – | – | – | – | – | – | – | 0.64% | 0.74 | 0.66% and 0.58% and 0.68% | without affecting other viruses | – |
| C=C1CC[C@@H]2[C@](C)(CC[C@H]3O[C@H](C=C(C)C)C[C@@]23C)[C@@H]1Cc1c(OC)oc(CO)c(C)c1=O [Compound 20] | 11.4 µM | 10.4 µM | 14.8 µM | 0.0986 µM | 13.6 µM | 11.4 µM | 17 µM | 11.2 µM | 15.6 µM | 14.5 µM | 12.9 µM | 0.77% | 0.89 | 0.76% and 0.80% | without affecting other viruses | – |
| C=C1CC[C@H]2[C@]3(C)C[C@H](C=C(C)C)O[C@H]3CC[C@]2(C)[C@@H]1Cc1c(OC)oc(C)c(C)c1=O [Compound 24] | – | – | – | – | – | – | – | – | – | – | – | – | – | – | without affecting other viruses | – |
| C=C1CC[C@@H]2[C@](C)(CC[C@H]3O[C@H](C=C(C)C)C[C@@]23C)[C@@H]1Cc1c(OC)oc(C)c(C)c1=O [Compound 22, O-methylated higginsianin A] | – | 1.78 µM | 10.6 µM | 0.211 µM | 3.79 µM | – | 8.05 µM | 2.45 µM | 11.9 µM | 10.4 µM | 3.33 µM | 0.41% | 0.47 | 0.40% and 0.42% | – | effect on sphere formation (MCF-7 cells): clearly inhibited sphere formation |
